{"source": "patent US20100311581A1", "about": "“Azolylmethyloxiranes, use Thereof and Agents Containing the Same” (BASF SE, priority 2007, published 2010)", "key": {"Pyriculana oryzae": {"system": "Pyriculana oryzae", "format": "cell-based"}, "Septoria tritici": {"system": "Septoria tritici", "test": "Activity against Septoria leaf blotch Septoria tritici in the microtiter test (Septtr)", "format": "cell-based"}, "Leptosphaeria nodorum": {"system": "Leptosphaeria nodorum", "test": "Activity against glume blotch Leptosphaeria nodorum in the microtiter test (Leptno)", "format": "cell-based"}, "Phakopsora pachyrhizi": {"system": "Phakopsora pachyrhizi", "test": "Curative activity against soya rust caused by Phakopsora pachyrhizi (Phakpa K1), greenhouse", "format": "in vivo", "details": "curative spray on soya seedlings, visual rating after 14 days in greenhouse, untreated 90% attack"}, "[1]": {"details": "31 ppm, microtiter plate, seventh day after inoculation, 405 nm, relative to active compound-free control (=100%)"}, "[2]": {"details": "microtiter plate, 7th day after inoculation, 405 nm, relative to active compound-free control (100%)"}, "[3]": {"details": "Comparison tests, microtiter test"}, "[4]": {"details": "Comparison tests, 31 ppm, microtiter test"}}, "note": "Where two headings read alike, the source gives them in different places.", "data": [{"smiles": "CSc1ncnn1C[C@]1(c2cccc(F)c2)O[C@@H]1c1ccccc1C", "note": "(relative stereo) [Example 5, 1-rel-[(2S,3R)-2-(3-fluorophenyl)-3-o-tolyloxiran-2-ylmethyl]-5-(methylthio)-1H-1,2,4-triazole]", "values": [{"measurement": "Growth in % at 31 ppm with Pyrior", "setting": "Pyriculana oryzae; [1]", "value": 0, "unit": "%"}]}, {"smiles": "Cc1ccccc1[C@H]1O[C@]1(Cn1nc[nH]c1=S)c1cccc(F)c1", "note": "(relative stereo) [Example 3, 1-[rel-(2S,3R)-2-(3-fluorophenyl)-3-o-tolyloxiran-2-ylmethyl]-1H-1,2,4-triazole-5(4H)-thione]", "values": [{"measurement": "Growth in % at 31 ppm with Septtr", "setting": "Septoria tritici; [2]", "value": 11, "unit": "%"}]}, {"smiles": "Fc1cccc([C@@]2(Cn3nc[nH]c3=S)O[C@@H]2c2ccccc2Cl)c1", "note": "(relative stereo) [Example 1, 1-[rel-(2S,3R)-3-(2-chlorophenyl)-2-(3-fluorophenyl)oxiran-2-ylmethyl]-1H-1,2,4-triazole-5(4H)-thione]", "values": [{"measurement": "Growth in % at 31 ppm with Septtr", "setting": "Septoria tritici; [3]", "value": 21, "unit": "%"}, {"measurement": "Growth in % at 31 ppm with Septtr", "setting": "Septoria tritici; [2]", "value": 21, "unit": "%"}]}, {"smiles": "COC(=O)Sc1ncnn1C[C@]1(c2cccc(F)c2)O[C@@H]1c1ccccc1Cl", "note": "(relative stereo) [Example 12, methyl {2-[rel-(2S,3R)-3-(2-chlorophenyl)-2-(3-fluorophenyl)-oxiranylmethyl]-2H-[1,2,4]triazole-3-yl}thiocarbonate]", "values": [{"measurement": "Growth in % at 31 ppm with Septtr", "setting": "Septoria tritici; [3]", "value": 25, "unit": "%"}, {"measurement": "Growth in % at 31 ppm with Leptno", "setting": "Leptosphaeria nodorum; [3]", "value": 0, "unit": "%"}, {"measurement": "Growth in % at 31 ppm with Leptno", "setting": "Leptosphaeria nodorum; microtiter plate, 7th day after inoculation, 405 nm, relative to active compound-free control", "value": 0, "unit": "%"}]}, {"smiles": "CSc1ncnn1C[C@]1(c2cccc(F)c2)O[C@@H]1c1ccccc1Cl", "note": "(relative stereo) [Example 6, 1-[rel-(2S,3R)-3-(2-chlorophenyl)-2-(3-fluorophenyl)oxiran-2-ylmethyl]-5-(methylthio)-1H-1,2,4-triazole]", "values": [{"measurement": "Attack in % at 600 ppm with Phakpa K1", "setting": "Phakopsora pachyrhizi", "value": 0, "unit": "%"}]}, {"smiles": "CCOP(=S)(OCC)Sc1ncnn1C[C@]1(c2cccc(F)c2)O[C@@H]1c1ccccc1Cl", "note": "(relative stereo) [Example 10, S-1-[rel-(2S,3R)-3-(2-chlorophenyl)-2-(3-fluorophenyl)oxiran-2-ylmethyl]-1H-1,2,4-triazole-5-yl O,O-diethyl phosphorodithioate]", "values": [{"measurement": "Growth in % at 31 ppm with Pyrior", "setting": "Pyriculana oryzae", "value": 0, "unit": "%"}]}, {"smiles": "CSc1ncnn1C[C@]1(c2cccc(F)c2)O[C@@H]1c1ccccc1F", "note": "(relative stereo) [Example 4, 1-[rel-(2S,3R)-3-(2-fluorophenyl)-2-(3-fluorophenyl)oxiran-2-ylmethyl]-5-(methylthio)-1H-1,2,4-triazole]", "values": [{"measurement": "Growth in % at 31 ppm with Pyrior", "setting": "Pyriculana oryzae; [1]", "value": 0, "unit": "%"}, {"measurement": "Growth in % at 31 ppm with Pyrior", "setting": "Pyriculana oryzae; [4]", "value": 0, "unit": "%"}]}, {"smiles": "N#CSc1ncnn1C[C@]1(c2cccc(F)c2)O[C@@H]1c1ccccc1Cl", "note": "(relative stereo) [Example 9, 1-[rel-(2S,3R)-3-(2-chlorophenyl)-2-(3-fluorophenyl)oxiran-2-ylmethyl]-5-thiocyanato-1H-1,2,4-triazole]", "values": [{"measurement": "Growth in % at 31 ppm with Septtr", "setting": "Septoria tritici; [2]", "value": 49, "unit": "%"}]}, {"smiles": "Fc1ccccc1[C@@]1(Cn2nc[nH]c2=S)O[C@@H]1c1ccccc1Cl", "values": [{"measurement": "Growth in % at 31 ppm with Septtr", "setting": "Septoria tritici; [3]", "value": 58, "unit": "%"}]}, {"smiles": "CSc1ncnn1C[C@]1(c2ccc(F)cc2)O[C@@H]1c1ccccc1F", "note": "[WO9638440, p. 17 (4th compound),]", "values": [{"measurement": "Growth in % at 31 ppm with Pyrior", "setting": "Pyriculana oryzae; [4]", "value": 100, "unit": "%"}]}, {"smiles": "COC(=O)Sc1ncnn1CC1(c2ccc(F)cc2)OC1c1ccccc1Cl", "note": "(stereo not shown) [WO9742178, p. 55 (4th compound)]", "values": [{"measurement": "Growth in % at 31 ppm with Septtr", "setting": "Septoria tritici; [3]", "value": 100, "unit": "%"}, {"measurement": "Growth in % at 31 ppm with Leptno", "setting": "Leptosphaeria nodorum; [3]", "value": 100, "unit": "%"}]}]}
